# What was measured:
# Type in all cases: in vivo
# [1] = tested on: Alopecurus myosuroïdes; assay: Exemple A: herbicide application, pre-emergence; settings: dose 1 Kg m.a./ha, notation 0 à 5 after 24 days
# From the text: (§1) Exemple A - Application herbicide, en prélevée des espèces végétales
# (§2) Dans des pots de 7 x 7 x 8 cm remplis de terre agricole légère, on sème un nombre de graines déterminé en fonction de l'espèce végétale et de la grosseur de la graine.
# (§3) Les pots sont traités par pulvérisation de bouillie en quantité correspondant à une dose volumique d'application de 500 l/ha et contenant la matière active à la concentration désirée.
# (§4) Le traitement avec la bouillie est donc effectué sur des graines non recouvertes de terre (on utilise le terme de bouillie pour désigner, en général, les compositions diluées à l'eau, telles qu'on les applique sur les végétaux).
# (§5) La bouillie utilisée pour le traitement est une solution ou suspension de la matière active dans un mélange acétone/eau en proportions 50/50, en présence de 0,05 % en poids de cemulsol NP 10 (agent tensio-actif) constitué d'alkylphénol polyéthoxylé, notamment de nonylphénol polyéthoxylé) et 0,04 % en poids de tween 20 (agent tensio-actif constitué d'un oléate de dérivé polyoxyéthyléné du sorbitol).
# (§6) Dans le cas d'une suspension, celle-ci est obtenue en mélangeant et broyant les ingrédients dans un microniseur de façon à obtenir une grosseur moyenne de particules inférieure à 40 microns.
# (§7) Après traitement, on recouvre les graines d'une couche de terre d'environ 3 mm d'épaisseur.
# (§8) Les pots sont alors placés dans des bacs destinés à recevoir l'eau d'arrosage, en subirrigation, et maintenus pendant 24 jours à température ambiante sous 70 % d'humidité relative.
# (§9) Le relevé est effectué de la façon suivante:
# (§10) Au bout de 24 jours, on mesure un pourcentage (D) des destructions du nombre de pieds dans le pot traité par rapport au nombre de plantes dans les pots non traités (témoin). On mesure, sur les plantes traitées restantes, le pourcentage de réduction de taille (RT) par rapport aux plantes témoin.
# (§11) Le pourcentage du volume foliaire non détruit par le produit est donc donné par la formule: ([100-D] x [100-RT])/(100)= A [formula]
# (§12) Cette valeur A est transformée en notation de 0 à 5 selon l'échelle suivante:
# (§13) Les résultats obtenus sont présentés après l'exemple B pour des doses d'application de 4000 g/ha à 1000 g/ha.
# (§14) Les espèces végétales utilisées dans ces exemples A et B sont: […]
# [2] = tested on: Avena fatua; assay: Exemple A: herbicide application, pre-emergence; settings: dose 1 Kg m.a./ha, notation 0 à 5 after 24 days
# From the text: as §1, §2, §3, §4, §5, §6, §7, §8, §9, §10, §11, §12, §13, §14
# [3] = tested on: Cyperus esculentus; assay: Exemple A: herbicide application, pre-emergence; settings: dose 1 Kg m.a./ha, notation 0 à 5 after 24 days
# From the text: as §1, §2, §3, §4, §5, §6, §7, §8, §9, §10, §11, §12, §13, §14
# [4] = tested on: Digitaria sanguinalis; assay: Exemple A: herbicide application, pre-emergence; settings: dose 1 Kg m.a./ha, notation 0 à 5 after 24 days
# From the text: as §1, §2, §3, §4, §5, §6, §7, §8, §9, §10, §11, §12, §13, §14
# [5] = tested on: Echinochloa crus galli; assay: Exemple A: herbicide application, pre-emergence; settings: dose 1 Kg m.a./ha, notation 0 à 5 after 24 days
# From the text: as §1, §2, §3, §4, §5, §6, §7, §8, §9, §10, §11, §12, §13, §14
# [6] = tested on: Alopecurus myosuroides; assay: Exemple C: selectivity test in field crops, pre-emergence (weed); settings: dose 1 Kg m.a./ha, 24 days
# From the text: (§15) Exemple C - Essai de sélectivité en grandes cultures avec application herbicide, en prélevée des espèces végétales
# (§16) Dans des pots de 7 X 7 X 8 cm remplis de terre agricole légère, on sème un nombre de graines déterminé en fonction de l'espèce végétale et de la grosseur de la graine.
# (§17) On recouvre ensuite les graines d'une couche de terre d'environ 3 mm d'épaisseur.
# (§18) Les pots sont alors traités par pulvérisation de bouillie en quantité correspondant à une dose volumique d'application de 500 l/ha et contenant la matière active à la concentration désirée.
# (§19) La bouillie a été préparée de la même manière qu'à l'exemple A.
# (§20) Les pots traités sont ensuite placés dans des bacs destinés à recevoir l'eau d'arrosage, en subirrigation, et maintenus pendant 24 jours à température ambiante sous 70 % d'humidité relative.
# as §9
# (§21) Au bout de 24 jours, on mesure un pourcentage (D) de destruction du nombre de pieds dans le pot traité par rapport au nombre de plantes dans les pots non traités (témoin). On mesure, sur les plantes traitées restantes, le pourcentage de réduction de taille (RT) par rapport aux plantes témoins.
# (§22) Le pourcentage de volume foliaire non détruit par le produit est donc donné par la formule: ([100-D] X [100-RT])/(100)= A [formula]
# as §12
# (§23) Ainsi, un produit est jugé comme sélectif vis à vis de la culture lorsque la valeur A notée est de 0 ou 1.
# (§24) Les résultats obtenus sont présentés dans l'exemple C pour des doses d'application de 500, 1000, 2000 ou 4000 g de matière active par hectare selon les produits.
# (§25) Les espèces végétales utilisées dans cet exemple sont: […]
# [7] = tested on: Digitaria sanguinalis; assay: as above; settings: dose 1 Kg m.a./ha, 24 days
# From the text: as §15, §16, §17, §18, §19, §20, §9, §21, §22, §12, §23, §24, §25
# [8] = tested on: Echinochloa crus-galli; assay: as above; settings: dose 1 Kg m.a./ha, 24 days
# From the text: as §15, §16, §17, §18, §19, §20, §9, §21, §22, §12, §23, §24, §25
# [9] = tested on: Panicum milicaeum; assay: as above; settings: dose 1 Kg m.a./ha, 24 days
# From the text: as §15, §16, §17, §18, §19, §20, §9, §21, §22, §12, §23, §24, §25
# [10] = tested on: Setaria faberii; assay: as above; settings: dose 1 Kg m.a./ha, 24 days
# From the text: as §15, §16, §17, §18, §19, §20, §9, §21, §22, §12, §23, §24, §25
# [11] = tested on: Sorghum halepense; assay: as above; settings: dose 1 Kg m.a./ha, 24 days
# From the text: as §15, §16, §17, §18, §19, §20, §9, §21, §22, §12, §23, §24, §25
# [12] = tested on: blé; assay: Exemple C: selectivity test in field crops, pre-emergence (crop); settings: dose 1 Kg m.a./ha, 24 days, 0 or 1 = selective; also: ranges in brackets are in %
# From the text: as §15, §16, §17, §18, §19, §20, §9, §21, §22, §12, §23, §24
# (§26) Les espèces végétales utilisées dans cet exemple sont:
# (§27) Comme on peut le voir sur le tableau de résultats de cet exemple C, de nombreux produits présentent une excellente activité antigraminée de prélevée tout en montrant une excellente sélectivité pour 1 ou 2 ou 3 ou 4 des 4 cultures testées = blé, maïs, riz, soja.
# [13] = tested on: maïs; assay: as above; settings: dose 1 Kg m.a./ha, 24 days, 0 or 1 = selective; also: ranges in brackets are in %
# From the text: as §15, §16, §17, §18, §19, §20, §9, §21, §22, §12, §23, §24, §26, §27
# [14] = tested on: riz; assay: as above; settings: dose 1 Kg m.a./ha, 24 days, 0 or 1 = selective; also: ranges in brackets are in %
# From the text: as §15, §16, §17, §18, §19, §20, §9, §21, §22, §12, §23, §24, §26, §27
# [15] = tested on: soja; assay: as above; settings: dose 1 Kg m.a./ha, 24 days, 0 or 1 = selective; also: ranges in brackets are in %
# From the text: as §15, §16, §17, §18, §19, §20, §9, §21, §22, §12, §23, §24, §26, §27
SMILES,ACTIVITE HERBICIDE DE PRELEVEE ALO [1],ACTIVITE HERBICIDE DE PRELEVEE AVE [2],ACTIVITE HERBICIDE DE PRELEVEE CYP [3],ACTIVITE HERBICIDE DE PRELEVEE DIG [4],ACTIVITE HERBICIDE DE PRELEVEE ECH [5],Notation de l'activité herbicide ALO [6],Notation de l'activité herbicide DIG [7],Notation de l'activité herbicide ECh [8],Notation de l'activité herbicide PAN [9],Notation de l'activité herbicide SET [10],Notation de l'activité herbicide SOR [11],Notation de l'activité herbicide TRZ [12],Notation de l'activité herbicide ZEA [13],Notation de l'activité herbicide ORY [14],Notation de l'activité herbicide GLY [15]
"C=C(CS(=O)(=O)c1cccs1)c1cc(F)cc(F)c1 [compound 7, 2-(3,5-difluorophényl) 1-(2-thiénylsulfonyl) 2-propène]",5 (O à 10),1 (70 à 90),1 (70 à 90),5 (O à 10),5 (O à 10),,,,,,,,,,
Cc1cc(C(O)(CBr)CS(=O)(=O)c2ccsc2)ccc1F (stereo not drawn) [compound 66],,,,,,3 (30 à 50),5 (O à 10),5 (O à 10),3 (30 à 50),3 (30 à 50),5 (O à 10),1 (70 à 90),2 (50 à 70),2 (50 à 70),1 (70 à 90)

# Source: EP0435794A1, “Alkenyl- or heteroaryl thio, sulfone, sulfoxy herbicides” (RHONE-POULENC AGROCHIMIE, priority 1989, dated 1991)
